The results in this text go back to EPA's ToxValDB 9.5 (doi:10.2903/j.efsa.2015.3958).

The test system of one series is Apis mellifera. The settings on record: acute; oral; unspecified; mortality.
The test system of the next series is Hypoaspis aculeifer. The following applies: acute; duration: 14 days.
For another series, the system named is Pimephales promelas. The settings on record: chronic/long-term; duration: 32 days; growth.
For a further series, the system named is Folsomia candida. The settings on record: chronic/long-term; duration: 28 days.
A further series relates to Daphnia magna. The settings on record: chronic/long-term; duration: 21 days; reproduction.

What is called NOAEL is the highest tested level that showed no adverse finding.

Consider `COc1nc(C)nc(NC(=O)NS(=O)(=O)c2ccccc2OCCCl)n1` [Triasulfuron], for which the LC50 in the series with Colinus virginianus (acute, oral, diet, mortality) was over 5000 mg/kg; in the series on Tagia sp. (acute, duration: 14 days, mortality), over 1000 mg/kg. The LD50 was over 2150 mg/kg with Colinus virginianus (acute, oral, mortality); over 5000 mg/kg in the series with Rattus norvegicus (acute, mortality); over 100 µg/piece in the series with Apis mellifera. Further, the NOEL with Colinus virginianus (reproduction developmental) was determined as 94 mg/kg-day. The molecule also registered an NOAEL with Rattus norvegicus (chronic) of 50 mg/kg-day. For the same molecule, the NOEC with Hypoaspis aculeifer worked out at 100 mg/kg; in the series with Tagia sp. (chronic/long-term, duration: 8 weeks), 50.8 mg/kg; in the series on Pimephales promelas, 36.6 mg/L; in the series on Folsomia candida it was 100 mg/kg; with Daphnia magna it was 10 mg/L.
